# Values joined by “and” are separate entries in the source; they are usually repeats but may differ in a detail not shown here. Equal entries are not always repeated.
# How the values were obtained:
# Type in all cases: physicochemical
# [1] = Photofading of phthalocyanines on irradiation with tungsten lamp light; conditions: toluene ~0.01 mM, 300 W tungsten lamp, 30 cm, room temperature
# Experimental: Linolenate Ester of SiPc(OH)2, SiPc(OC(O)(CH2)6(CH2CH═CH)3 CH2CH3]2. A solution of the linolenate ester of SiPc(OH)2 in toluene (˜0.01 mM) in a capped quartz cuvette was irradiated at room temperature with light from a tungsten lamp (300 W) in a projector (Kodak […] III E, Kodak, Japan) with a lamp-to-cuvette separation of 30 cm. The UV-vis absorption of the solution at 684 nm was taken periodically and the percent ester remaining was calculated.
# The compounds below Table 7 show phthalocyanines with (a) polyunsaturated ester ligands and (b) with polyunsaturated anions
# [2] = Qualitative solubility in representative organic solvents; conditions: for solubility in CH2Cl2: CH2Cl2, qualitative; for solubility in dimethylformamide / solubility in ethanol / solubility in hexanes / solubility in toluene: qualitative
# [3] = Quantitative solubility (concentration) in H2O and aqueous dispersants
# Text: Disperstants are agents added to an aqueous solution to prevent clumping, and include a number of surfactant and surfactant-like molecules. […]
# [4] = Chemical stability (air, chromatography); conditions: air
# [5] = Salt concentration in polar and nonpolar solvents (Table 2); conditions: for solubility in hexanes and mineral oil: mineral oil (Nujol)
solubility in CH2Cl2 [2],solubility in dimethylformamide [2],solubility in ethanol [2],solubility in hexanes [2],solubility in toluene [2],Compound,other results
soluble,soluble,soluble,insoluble,moderately soluble,H(OCH2CH2)˜9OC(O)(CH2)2C(O)OH [Compound 19],
soluble,soluble,soluble,insoluble,moderately soluble,[HOSiPcOSi(CH3)2(CH2)3NH(CH3)2]^+[4-C9H19C6H4-1-(OCH2CH2)˜20O(CH2)3SO3]^− [Compound 18],"salt conc in dilute aqueous Tween 80 ([3]; Tween 80 7.2 mg/mL ([…])): 874 µM; salt conc ([3]; aqueous Dow Corning 193 7.2 mg/mL, listed as Pc 245): 50 μg/mL and 70 μM; salt conc ([3]; aqueous PEG methyl ether 350 7.2 mg/mL (21 mM), listed as Pc 245): 9.3 μg/mL and 13 μM; salt conc ([3]; aqueous PEG methyl ether 750 7.2 mg/mL (9.6 mM), listed as Pc 245): 0.022 μg/mL and 0.031 μM; salt conc ([3]; aqueous PEG methyl ether 2000 7.2 mg/mL (3.6 mM), listed as Pc 245): 1.3 μg/mL and 1.8 μM; salt conc ([3]; aqueous PEG methyl ether 5000 7.2 mg/mL (1.4 mM), listed as Pc 245): 3.4 μg/mL and 4.8 μM; salt conc ([3]; aqueous potassium poly(ethylene glycol)-4-nonylphenyl-3-sulfopropyl ether 7.2 mg/mL (5.0 mM)): 1418 µM; salt conc ([3]; aqueous potassium poly(ethylene glycol)-4-nonylphenyl-3-sulfopropyl ether 7.2 mg/mL (5.0 mM), listed as Pc 245): ~1018 μg/mL and ~1418 μM; salt conc ([3]; aqueous povidone 7.2 mg/mL (0.18 mM), listed as Pc 245): 14 μg/mL and 19 μM"
soluble,soluble,soluble,insoluble,moderately soluble,"CN(C)CCC[Si](C)(C)O[Si]1(O)n2c3c4ccccc4c2N=C2N=C(N=c4c5ccccc5c(n41)=NC1=NC(=N3)c3ccccc31)c1ccccc12.O=C(O)CCC(=O)OCCOCCOCCOCCOCCOCCOCCOCCOCCO (stereo not drawn) [Compound 20, [HOSiPcOSi(CH3)2(CH2)3NH(CH3)2]^+[H(OCH2CH2)9OC(O)(CH2)2C(O)O]^−]",
soluble,soluble,soluble,insoluble,moderately soluble,CH3(OCH2CH2)˜45OC(O)(CH2)2C(O)OH [Compound 23],
soluble,soluble,soluble,insoluble,moderately soluble,[HOSiPcOSi(CH3)2(CH2)3NH(CH3)2]^+[H(OCH2CH2)˜76O(O)C(CH2)2C(O)O]^− [Compound 22],
soluble,soluble,soluble,insoluble,moderately soluble,H(OCH2CH2)˜76OOC(CH2)2COOH [Compound 21],
soluble,soluble,soluble,insoluble,moderately soluble,[HOSiPcOSi(CH3)2(CH2)3NH(CH2)2]^+[C27H29N2O7S2]^− [Compound 14],
soluble,soluble,soluble,slightly soluble,moderately soluble,[HOSiPcOSi(CH3)2(CH2)3NH(CH2)2]^+[C33H53O5]^− [Compound 11],"salt concentration, […] aqueous Tween 80 [5]: 0.004 mM; solubility in aqueous solution ([5]; in words): only slight solubility; salt concentration, hexanes [5]: 0.065 mM; solubility in hexanes and mineral oil ([5]; in words): significant solubility; salt concentration, mineral oil [5]: 0.029 mM; solubility in petrolatum ([5]; petrolatum (Vaseline), in words): significant solubility"

# Continued, compound first:
Compound,solubility in CH2Cl2 [2],solubility in dimethylformamide [2],solubility in ethanol [2],solubility in hexanes [2],solubility in toluene [2],other results
SiPc(OC(O)(CH2)6(CH2CH═CH)2(CH2)4CH3]2 [linoleic ester],,,,,,% left ([1]; 4 hrs irradiation): 95%; % left ([1]; 12 hrs irradiation): 95%; % left ([1]; 20 hrs irradiation): 94%
SiPc[OC(O)(CH2)17]2 [stearic ester],,,,,,% left ([1]; 20 hrs irradiation): 100%
"CN(C)CCC[Si](C)(C)O[Si]1(O)n2c3c4ccccc4c2N=C2N=C(N=c4c5ccccc5c(n41)=NC1=NC(=N3)c3ccccc31)c1ccccc12.COC(=O)c1ccccc1C(=O)O (stereo not drawn) [Compound 10, [HOSiPcOSi(CH3)2(CH2)3NH(CH2)2]^+[2-(CH3OC(O))C6H4C(O)O]^−]",soluble,soluble,soluble,insoluble,moderately soluble,
{SiPc[OSi(CH3)2(CH2)3NH(CH3)2]2}^2+[CH3CH2(CH═CHCH2)3(CH2)6COO^−]2 [linolenic salt],,,,,,% left ([1]; 12 hrs irradiation): 79%; % left ([1]; 20 hrs irradiation): 73%
"CCC=CCC=CCC=CCC=CCC=CCC=CCCC(=O)O.CCC=CCC=CCC=CCC=CCC=CCC=CCCC(=O)O.CN(C)CCC[Si](C)(C)O[Si]1(O[Si](C)(C)CCCN(C)C)n2c3c4ccccc4c2N=C2N=C(N=c4c5ccccc5c(n41)=NC1=NC(=N3)c3ccccc31)c1ccccc12 [DHA salt, {SiPc[OSi(CH3)2(CH2)3NH(CH3)2]2}^2+[CH3CH2(CH═CHCH2)6CH2COO^−]2]",,,,,,% left ([1]; 4 hrs irradiation): 72%; % left ([1]; 8 hrs irradiation): 62%
[CH3C(O)C(O)OSiPcOSi(CH3)2(CH2)3NH(CH3)2]^+Cl^− [Compound 29],soluble,soluble,soluble,insoluble,moderately soluble,time of hydrolysis by air to Pc 4 [4]: ≤ 2 h
"CO[Si]1(O[Si](C)(C)CCCN(C)C)n2c3c4ccccc4c2N=C2N=C(N=c4c5ccccc5c(n41)=NC1=NC(=N3)c3ccccc31)c1ccccc12 (stereo not drawn) [Compound 4, CH3OSiPcOSi(CH3)2(CH2)3N(CH3)2]",soluble,soluble,soluble,insoluble,moderately soluble,stability in air [4]: stable
"CN(C)CCC[Si](C)(C)O[Si]1(O)n2c3c4ccccc4c2N=C2N=C(N=c4c5ccccc5c(n41)=NC1=NC(=N3)c3ccccc31)c1ccccc12 (stereo not drawn) [Pc 4, HOSiPcOSi(CH3)2(CH2)3N(CH3)2, reference compound]",,,,,,"Pc 4 conc ([3]; H2O, no dispersant): 0.0 μg/mL and 0.0 μM; Pc 4 conc ([3]; aqueous 1,6-hexanediol 7.2 mg/mL (61 mM)): 7.2 μg/mL and 10 μM; Pc 4 conc ([3]; aqueous Dow Corning 193 7.2 mg/mL): 0.29 μg/mL and 0.40 μM; Pc 4 conc ([3]; aqueous potassium poly(ethylene glycol)-4-nonylphenyl-3-sulfopropyl ether 7.2 mg/mL (5.7 mM)): 4.3 μg/mL and 6.0 μM; Pc 4 conc ([3]; aqueous povidone 7.2 mg/mL (0.18 mM)): 0.09 μg/mL and 0.12 μM"
4-C9H19C6H4-1-(OCH2CH2)˜20O(CH2)3SO3H [Compound 17],soluble,soluble,soluble,insoluble,moderately soluble,
[HOSiPcOSi(CH3)2(CH2)3NH(CH3)2]^+[CH3(OCH2CH2)˜45OC(O)(CH2)2C(O)O]^− [Compound 24],soluble,soluble,soluble,insoluble,moderately soluble,
"CC(=O)O[Si-2]123(O[Si](C)(C)CCCN(C)C)n4c5c6ccccc6c4N=C4c6ccccc6C(=[N+]41)N=c1c4ccccc4c(n12)=NC1=[N+]3C(=N5)c2ccccc21 [Compound 2, CH3C(O)OSiPcOSi(CH3)2(CH2)3N(CH3)2]",soluble,soluble,soluble,insoluble,moderately soluble,stability in air [4]: stable
"CN(C)CCC[Si](C)(C)O[Si]1(O)n2c3c4ccccc4c2N=C2N=C(N=c4c5ccccc5c(n41)=NC1=NC(=N3)c3ccccc31)c1ccccc12.CS(=O)(=O)O (stereo not drawn) [Compound 26, [HOSiPcOSi(CH3)2(CH2)3NH(CH3)2]^+[CH3SO3]^−]",,,,,,"salt concentration, […] aqueous Tween 80 [5]: 0.262 mM; solubility in aqueous solution ([5]; in words): show solubility; salt concentration, hexanes [5]: 0.002 mM; solubility in hexanes and mineral oil ([5]; in words): little; salt concentration, mineral oil [5]: 0.002 mM"
"CN(C)CCC[Si](C)(C)O[Si-2]123(F)n4c5c6ccccc6c4N=C4c6ccccc6C(=[N+]41)N=c1c4ccccc4c(n12)=NC1=[N+]3C(=N5)c2ccccc21 [Compound 1, FSiPcOSi(CH3)2(CH2)3N(CH3)2]",soluble,soluble,soluble,insoluble,moderately soluble,stability in air [4]: stable
"CN(C)CCC[Si](C)(C)O[Si]1(O)n2c3c4ccccc4c2N=C2N=C(N=c4c5ccccc5c(n41)=NC1=NC(=N3)c3ccccc31)c1ccccc12.CP(C)(=O)O (stereo not drawn) [Compound 13, [HOSiPcOSi(CH3)2(CH2)3NH(CH2)2]^+[(CH3)2P(O)O]^−]",soluble,soluble,soluble,insoluble,moderately soluble,

# — patent publication US8440641B2, “Phthalocyanine salt formulations” (Case Western Reserve University, priority 2009, dated 2013)
